Row | SMILES | melting point [°C]
1 | Cc1cc(OCc2ccccc2)cc(OCCCc2ccccc2)c1C(=O)O [Example 15, 4-Benzyloxy-2-methyl-6-(3-phenyl-propoxy)-benzoic Acid] | 109 to 111
2 | Cc1cc(OCc2ccccc2)cc(OCCCC(C)C)c1C(=O)O [Example 15b, 4-Benzyloxy-2-methyl-6-(4-methyl-pentyloxy)-benzoic Acid] | 83 to 85
3 | Cc1cc(OCc2ccccc2)cc(OCC2CCCCC2)c1C(=O)O [Example 15a, 4-Benzyloxy-2-cyclohexylmethoxy-6-methyl-benzoic Acid] | 127 to 128
